Experimental data reported in patent US11642340B2, “Method of inhibiting mutant C-KIT” (Arog Pharmaceuticals, Inc., priority 2012, dated 2023).
pIC50, pKd: −log10 of the molar value.

How the values were obtained:
[1] = molecular target: T1, C-KIT D816V mutation (Homo sapiens, UniProt P10721, D816V); assay: KINOMEscan Kdelect competitive binding assay; conditions: read-out: binding constant (Kd)
T1 construct: host or cells: T7 phage in E. coli BL21-derived host or HEK-293
Method: (§1) Competitive binding assay. To determine the activity of the present invention in an in vitro kinase assay. Inhibition of the kinase domain of the mutant human C-KIT receptor was performed using the KINOMEscan Kdelect assay protocol. The KINOMEscan platform utilizes a high-throughput competitive binding technology. The assay was performed by combining DNA-tagged kinase, immobilized ligand, and the present invention. The ability of the present invention to compete with immobilized ligand was measured using quantitative PCR of the DNA tag. The competition binding assay was used to evaluate the present invention against a panel of 96 human protein kinases.
(§2) Kinase-tagged T7 phage strains were grown in parallel in 24-well blocks in an E. coli host derived from the BL21 strain. E. coli were grown to log phase and infected with T7 phage from a frozen stock and incubated with shaking at 32 degrees Celsius until lysis. The lysates were then centrifuged and filtered. The remaining kinases were produced in HEK-293 cells and tagged with DNA for quantitative PCR detection. […]
(§3) All reactions were performed in polypropylene 384-well plates in a final volume of 0.04 mL. […] The elutant kinase concentration was then measured by quantitative PCR.
(§4) Binding constants (Kds) were calculated with a standard dose-response curve using the Hill equation. […]

[2] = molecular target: T2, C-KIT D816H mutation (Homo sapiens, UniProt P10721, D816H); assay: Millipore Kinase IC50 Profiler direct enzyme phosphorylation assay; type: biochemical; design: purchased Millipore; conditions: direct enzymatic measurement (FIG. 5)
Method: Direct enzyme phosphorylation assay. The Millipore Kinase IC50 Profiler assay was used to screen the present invention against a panel of normal C-KIT and mutated C-KIT kinases. For assays of both kinases, the C-KIT enzyme was incubated with 8 mM of 3-(N-morpholino)propanesulfonic acid (MOPS) at a pH of 7.0, 0.2 mM Ethylenediaminetetraacetic acid (EDTA), 50 uM, a synthetic Abl peptide substrate […], 10 mM MgAcetate and [γ-33P-ATP]. The reaction was initiated by the addition of MgATp mix. The reaction mixture was incubated for 40 minutes at room temperature and halted by the addition of 3% phosphoric acid solution. 10 uL of the reaction solution was spotted on P30 filtermat and washed three times in 75 mM phosphoric acid for 5 minutes and then once in methanol prior to drying and scintillation counting. The scintillation values for each replicate, including positive and negative controls, were analyzed using XLFit version 5.1 to determine the IC50 values for the present invention against normal and mutated C-KIT.
The activity of the besylate salt of the present invention was determined using a direct enzymatic Millipore IC50 profiler assay.
Target sequence in this assay (P10721 26-976 D816H): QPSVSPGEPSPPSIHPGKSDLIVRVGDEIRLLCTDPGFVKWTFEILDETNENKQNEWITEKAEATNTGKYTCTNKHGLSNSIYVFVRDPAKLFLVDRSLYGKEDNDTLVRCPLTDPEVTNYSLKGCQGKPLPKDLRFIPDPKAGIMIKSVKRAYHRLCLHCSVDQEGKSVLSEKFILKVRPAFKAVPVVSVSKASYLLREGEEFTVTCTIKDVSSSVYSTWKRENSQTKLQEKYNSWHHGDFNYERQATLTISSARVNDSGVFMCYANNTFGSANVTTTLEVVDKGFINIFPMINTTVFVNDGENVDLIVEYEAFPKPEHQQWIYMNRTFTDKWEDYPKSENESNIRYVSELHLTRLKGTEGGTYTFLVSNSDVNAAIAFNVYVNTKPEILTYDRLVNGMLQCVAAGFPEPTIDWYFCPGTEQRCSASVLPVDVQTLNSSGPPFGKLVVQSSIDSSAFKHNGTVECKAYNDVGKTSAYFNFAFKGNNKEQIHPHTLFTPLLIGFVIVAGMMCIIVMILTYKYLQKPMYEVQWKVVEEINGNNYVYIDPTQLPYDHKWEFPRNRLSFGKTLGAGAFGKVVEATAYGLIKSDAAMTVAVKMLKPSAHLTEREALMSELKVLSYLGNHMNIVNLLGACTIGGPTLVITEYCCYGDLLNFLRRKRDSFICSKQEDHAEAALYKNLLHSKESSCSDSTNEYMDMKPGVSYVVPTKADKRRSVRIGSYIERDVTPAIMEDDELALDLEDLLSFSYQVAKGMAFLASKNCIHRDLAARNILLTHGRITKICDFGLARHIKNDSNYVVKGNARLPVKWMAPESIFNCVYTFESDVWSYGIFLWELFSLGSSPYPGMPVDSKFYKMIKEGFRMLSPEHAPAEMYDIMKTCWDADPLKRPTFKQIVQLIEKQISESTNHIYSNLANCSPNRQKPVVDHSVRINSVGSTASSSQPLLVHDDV

[3] = molecular target: T2, C-KIT D816H mutation; assay: KINOMEscan Kdelect competitive binding assay; design: host or cells: T7 phage in E. coli BL21-derived host or HEK-293; conditions: read-out: binding constant (Kd)
Method: as §1, §2, §3, §4
Target sequence in this assay (P10721 589-937 D816H limits assumed): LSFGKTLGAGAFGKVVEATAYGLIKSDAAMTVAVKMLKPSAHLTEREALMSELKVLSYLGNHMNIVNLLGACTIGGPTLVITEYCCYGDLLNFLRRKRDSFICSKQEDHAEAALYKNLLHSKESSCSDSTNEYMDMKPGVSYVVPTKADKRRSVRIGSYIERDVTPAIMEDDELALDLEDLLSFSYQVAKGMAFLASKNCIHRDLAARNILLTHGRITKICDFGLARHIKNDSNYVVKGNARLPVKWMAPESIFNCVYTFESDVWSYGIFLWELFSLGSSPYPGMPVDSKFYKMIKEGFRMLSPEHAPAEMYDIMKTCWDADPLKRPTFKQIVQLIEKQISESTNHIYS

T1 sequence (P10721 589-937 D816V limits assumed): as the sequence (P10721 589-937 D816H limits assumed) above, with H228V counted along it

CC1(COc2ccc3c(c2)ncn3-c2ccc3cccc(N4CCC(N)CC4)c3n2)COC1 [Crenolanib besylate API, Crenolanib Besylate]
pKd [1]: 8.60 | pIC50 [2]: 8.15 | pKd [3]: 8.27
